Measured values reported in patent US20230003721A1, “MITOTHERAPEUTICS FOR THE TREATMENT OF BRAIN DISORDERS” (The University of Florida Research Foundation, Inc., priority 2019, published 2023).
Where a name gives a salt, the structure may show the parent alone.

Assays:
primary neurons [1] = assay: TMRM fluorescence assay of inner mitochondrial membrane potential (ΔΨm); conditions: for TMRM Primary: primary screen; for TMRM Primary / hit in TMRM primary screen when assayed at 4 h: 12.5 μM; for TMRM Primary / TMRM Rescreen: 24 h; for Emax / EC50: Mus musculus, Primary neuron; for Emax: read-out: TMRM (Effect-size); for EC50: read-out: TMRM-EC50
Protocol: Mitochondrial dyes. To assay the electrochemical potential across the inner mitochondrial membrane of cultured cells, we used the cell-permeant dye tetramethylrhodamine methyl ester (TMRM). For co-localization studies with Mt-GFP, TMRM was used at 20 nM on DIV14 and incubated for 30 min prior to imaging. For the orthogonal screen of compounds, TMRM was added to primary neurons on DIV13 at 10 nM, one hr prior to pintooling selected compounds, and incubated for 24 hr. Cells were washed 2× with pre-warmed fresh feeding media without B27 before measurements with a plate reader.
(§1) A CLARIOstar (BMG LABTECH) microplate reader was used to measure fluorescence of TMRM and luminescence produced from the ATP.
(§2) Mitochondrial membrane potential (Δψm) and luminescence-based ATP assays. […] Changes of ΔΨm in each well were monitored using the mitochondrial-specific, fluorescent dye TMRM (tetramethyl rhodamine, methyl ester; Molecular Probes) and measured using a CLARIOstar plate reader. […] This concentration was used throughout our experiments. […] Wells in columns 1 and 24 were not loaded with TMRM; these served to measure background signal which was subtracted from the wells to which TMRM was added. To measure the total ATP levels in neurons we utilized the CellTiter-Glo® luminescence-based ATP assay (Promega). DIV13 primary neurons were cultured for 24 h with either DMSO carrier or compound treatment, followed by removing 55 μl culture medium from each well. Plates were maintained at room temperature for 25 m, and 25 μl of CellTiter-Glo® Reagent with the substrate luciferin was then added to each well (Promega). Plates were covered with aluminum foil and shaken vigorously on an orbital shaker for 10 m at 200 rpm and maintained at room temperature for an additional 2 m in dark before being read with the plate reader set to the luminescence mode.
Compound library and hit picking rules. We screened 2400 compounds from the MicroSource Spectrum library. […] FIGS. 13A-13E provide details of the assays used from which hit picking rules were made. In essence, the average fluorescence for each compound in the TMRM assay was determined and compared to the average fluorescence for compounds in the population on each assay plate to produce a Z-score. The Z-scores for each individual compound assayed across the four replicate plates was then averaged.

primary neurons [2] = assay: CellTiter-Glo luminescence-based ATP assay; type: cell-based, mouse; conditions: for ATP: ATP orthogonal screen, 24 h; for EC50 / Emax: Mus musculus, Primary neuron, dose response; for EC50: 15 concentrations from 6 nM to 100 uM; for Emax: maximal percent increase relative to in-plate DMSO controls, read-out: ATP (Effect-size)
Protocol: Measurement of ATP production. The total amount of ATP produced by cultured primary neurons was measured by CellTiter-Glo Luminescent Cell Viability Assay (Promega). A recombinant luciferase enzyme catalyzed the mono-oxygenation of luciferin while hydrolyzing ATP produced by the cells and emitting light. We followed the manufacturer's protocol with primary neurons on DIV14.
as §1, §2
Compound library and hit picking rules. We screened 2400 compounds from the MicroSource Spectrum library. […] FIGS. 13A-13E provide details of the assays used from which hit picking rules were made. In essence, the average fluorescence for each compound in the TMRM assay was determined and compared to the average fluorescence for compounds in the population on each assay plate to produce a Z-score. The Z-scores for each individual compound assayed across the four replicate plates was then averaged. Because of significant well location effects (outer rows) on each assay plate (FIG. 13G), we selected primary hits as enhancing well fluorescence above the μplate by 3σplate for inner row wells (rows C-N, columns 3-22), and by 2.5σplate for outer row wells (rows A, B, O, P; columns 3-22) (FIG. 14C-D). […] All orthogonal assays employed inner wells of the 384-well plates.

Compound | TMRM Primary (primary neurons [1]) [Z-scores] | TMRM Rescreen (primary neurons [1]) [Z-scores] | ATP (primary neurons [2]) [Z-scores] | hit in TMRM primary screen when assayed at 4 h (primary neurons [1]) | Emax (primary neurons [1]) [%] | EC50 (primary neurons [1]) [nM] | EC50 (primary neurons [2]) [nM] | Emax (primary neurons [2]) [%]
CCN(CC)CCOC(=O)C(c1ccccc1)C1CCCCC1 (stereo not shown) [drofenine hydrochloride] | 3.68 | 5.96 | 4.84 | – | – | – | – | –
C[C@]12CC[C@@H]3c4ccc(O)cc4CC[C@H]3[C@@H]1CC[C@@H]2OC(=O)CCC1CCCC1 [estradiol cypionate] | 2.59 | 4.67 | 2.98 | – | – | – | – | –
COc1ccc2c(c1)CC[C@@H]1[C@@H]2CC[C@]2(C)[C@@H](O)CC[C@@H]12 [estradiol methyl ether] | 3.74 | 3.55 | 4.80 | – | – | – | – | –
CC12CCC3c4ccc(OCc5ccccc5)cc4CCC3C1C[C@@H](O)[C@@H]2O (stereo partly shown) [estriol benzyl ether] | 3.17 | 6.67 | 2.03 | – | – | – | – | –
CC(=O)Oc1ccc2c(c1)CCC1C2CC[C@]2(C)C(=O)CCC12 (stereo partly shown) [estrone acetate] | 3.26 | 5.89 | 3.36 | – | – | – | – | –
C=CCc1ccc(O)c(OC)c1 [eugenol] | 4.17 | 3.10 | 4.39 | eugenol* | – | – | – | –
CCOC(=O)C1=C(C)NC(C)=C(C(=O)OC)C1c1cccc(Cl)c1Cl (stereo not shown) [felodipine] | 3.80 | 2.41 | 5.08 | – | – | – | – | –
C[C@]12CC[C@@H]3c4ccc(O)cc4C[C@@H](CCCCCCCCC[S+]([O-])CCCC(F)(F)C(F)(F)F)[C@H]3[C@@H]1CC[C@@H]2O (stereo partly shown) [fulvestrant] | 3.31 | 6.27 | 4.27 | – | – | – | – | –
COc1cc(O)c2c(=O)cc(C)oc2c1CC=C(C)C [heteropeucenin, methyl ether] | 3.45 | 4.33 | 5.92 | – | – | – | – | –
CCN(CC)CCNc1ccc(CO)c2sc3ccccc3c(=O)c12 [hycanthone] | 4.40 | 5.48 | 4.61 | – | – | – | – | –
OCCOCCN1CCN(C(c2ccccc2)c2ccc(Cl)cc2)CC1 (stereo not shown) [hydroxyzine pamoate] | 3.15 | 6.04 | 5.22 | – | – | – | – | –
O=C([O-])Cc1c[nH]cn1.[Na+] [imidazol-4-ylacetic acid sodium salt] | 3.58 | 4.56 | 4.61 | imidazol-4-ylacetic acid sodium salt* | – | – | – | –
CN(C)CCCN1c2ccccc2CCc2ccccc21 [imipramine hydrochloride] | 3.31 | 0.91 | 5.10 | – | – | – | – | –
OCc1c[nH]c2ccccc12 [indole-3-carbinol] | 3.15 | 6.27 | 6.52 | – | – | – | – | –
O=C(c1ccc(F)cc1)C1CCN(CCn2c(=O)[nH]c3ccccc3c2=O)CC1 [ketanserin tartrate] | 5.62 | 5.26 | 5.68 | – | 30 | 1300 | 160 | 19.1
CN1CCC(=C2c3ccccc3CC(=O)c3sccc32)CC1 [ketotifen fumarate] | 3.91 | 3.98 | 5.58 | ketotifen fumarate* | – | – | – | –
C=C[C@@](C)(O)CC[C@H]1C(=C)C[C@H](OC(C)=O)[C@H]2C(C)(C)CCC[C@]12C [larixol acetate] | 3.96 | 5.67 | 2.67 | – | – | – | – | –
CCN(CC)C(=O)[C@@]1(c2ccccc2)C[C@H]1CN [levomilnacipran hydrochloride] | 3.26 | 3.53 | 3.87 | – | – | – | – | –
CCN(CC)CC(=O)Nc1c(C)cccc1C [lidocaine hydrochloride] | 3.06 | 4.69 | 6.98 | – | 17.4 | 1890 | 110 | 15.8
CN1[C@@H](CC(=O)c2ccccc2)CCC[C@H]1C[C@H](O)c1ccccc1 [lobeline hydrochloride] | 6.62 | 6.75 | 3.67 | – | – | – | – | –
CC(=O)O[C@]1(C(C)=O)CC[C@H]2[C@@H]3C[C@H](C)C4=CC(=O)CC[C@]4(C)[C@H]3CC[C@@]21C [medroxyprogesterone acetate] | 3.66 | 3.67 | 2.64 | medroxyprogesterone acetate* | – | – | – | –
OC(c1cc(C(F)(F)F)nc2c(C(F)(F)F)cccc12)C1CCCCN1 (stereo not shown) [mefloquine] | 3.75 | 5.54 | 5.09 | – | – | – | – | –
CCCNC(C)(C)COC(=O)c1ccccc1 [meprylcaine hydrochloride] | 3.56 | 5.91 | 6.05 | – | – | – | – | –
CCN(CC)CCOC(=O)C(Cc1cccc2ccccc12)CC1CCCO1 (stereo not shown) [nafronyl oxalate] | 4.08 | 5.89 | 5.17 | nafronyl oxalate* | – | – | – | –
CN(C/C=C/c1ccccc1)Cc1cccc2ccccc12 [naftifine hydrochloride] | 3.26 | 4.64 | 4.65 | – | – | – | – | –
OC(CNCC(O)C1CCc2cc(F)ccc2O1)C1CCc2cc(F)ccc2O1 (stereo not shown) [nebivolol hydrochloride] | 3.73 | 5.29 | 6.92 | – | – | – | – | –
CCc1nn(CCCN2CCN(c3cccc(Cl)c3)CC2)c(=O)n1CCOc1ccccc1 [nefazodone hydrochloride] | 4.00 | 6.11 | 6.30 | – | – | – | – | –
COC(=O)C1=C(C)NC(C)=C(C(=O)OCCN(C)Cc2ccccc2)C1c1cccc([N+](=O)[O-])c1 (stereo not shown) [nicardipine hydrochloride] | 4.22 | −5.52 | −3.75 | – | – | – | – | –
